Assay results as given in US20240207258A1, “HETEROCYCLIC PDK1 INHIBITORS FOR USE TO TREAT CANCER” (Viracta Therapeutics, Inc., priority 2015, published 2024).
Like-named read-outs stand apart in the source and are kept apart here.

Legend:
[1] = test system: SU-DHL-6; test: MTS cell proliferation assay, SU-DHL-6; format: cell-based; details: Homo sapiens; SU-DHL-6, 72 hr
Protocol: (§1) Cell proliferation was measured using the CellTiter 96 Aqueous Non-Radioactive Cell Proliferation Assay (Promega). The CellTiter 96® AQueous Assay is composed of solutions of a tetrazolium compound [3-(4,5-dimethylthiazol-2-yl)-5-(3-carboxymethoxyphenyl)-2-(4-sulfophenyl)-2H-tetrazolium, inner salt; MTS] and an electron coupling reagent (phenazine methosulfate) PMS. MTS is bioreduced by cells into a formazan product that is soluble in tissue culture medium. The absorbance of the formazan product at 490 nm can be measured directly from assay plates without additional processing. The quantity of formazan product as measured by the amount of 490 nm absorbance is directly proportional to the number of living cells in culture. Cells were seeded into 96-well or 384-well clear plates in a volume of 200 μL (96-well) or 50 μL (384-well) at optimized densities ranging from 1,000 to 40,000 cells per well for 96-well plates or 1,200 to 25,000 cells per well for 384-well plates depending on cell-line. After 4-6 hr recovery, serially diluted compounds in DMSO were added to the cells using (0.1% v/v final DMSO concentration). Cells were then grown at 37° C. in a humidified incubator with 5% CO2 for 72 hr. A 20:1 [3-(4,5-dimethylthiazol-2-yl)-5-(3-carboxymethoxyphenyl)-2-(4-sulfophenyl)-2H-tetrazolium](MTS):phenazine methosulfate (PMS) solution in DPBS was made immediately before use, added to each well, and cells were incubated for 1.5 hr at 37° C. The absorbance at 490 nm was then measured using a platereader. Absorbance values were normalized as percent of control (cells incubated in the presence of 0.1% v/v DMSO). Sigmoidal dose-response curves were plotted using log(inhibitor) vs. response—Variable slope (four parameters) model with a top value constrained to 100% (GraphPad Prism version 6.00 for Windows, GraphPad Software, La Jolla California USA). […] Curves for compounds that reached a plateau were matched exactly to the measurement points. […]

[2] = test system: A20; test: MTS cell proliferation assay, A20; format: cell-based, murine; details: Mus musculus; A20, 72 hr
Protocol: (§2) Cell proliferation was measured using the CellTiter 96 Aqueous Non-Radioactive Cell Proliferation Assay (Promega). The CellTiter 96® AQueous Assay is composed of solutions of a tetrazolium compound [3-(4,5-dimethylthiazol-2-yl)-5-(3-carboxymethoxyphenyl)-2-(4-sulfophenyl)-2H-tetrazolium, inner salt; MTS] and an electron coupling reagent (phenazine methosulfate) PMS. MTS is bioreduced by cells into a formazan product that is soluble in tissue culture medium. The absorbance of the formazan product at 490 nm can be measured directly from assay plates without additional processing. The quantity of formazan product as measured by the amount of 490 nm absorbance is directly proportional to the number of living cells in culture. Cells were seeded into 96-well or 384-well clear plates in a volume of 200 μL (96-well) or 50 μL (384-well) at optimized densities ranging from 1,000 to 40,000 cells per well for 96-well plates or 1,200 to 25,000 cells per well for 384-well plates depending on cell-line. After 4-6 hr recovery, serially diluted compounds in DMSO were added to the cells using (0.1% v/v final DMSO concentration). Cells were then grown at 37° C. in a humidified incubator with 5% CO2 for 72 hr. A 20:1 [3-(4,5-dimethylthiazol-2-yl)-5-(3-carboxymethoxyphenyl)-2-(4-sulfophenyl)-2H-tetrazolium](MTS):phenazine methosulfate (PMS) solution in DPBS was made immediately before use, added to each well, and cells were incubated for 1.5 hr at 37° C. The absorbance at 490 nm was then measured using a platereader. Absorbance values were normalized as percent of control (cells incubated in the presence of 0.1% v/v DMSO). Sigmoidal dose-response curves were plotted using log(inhibitor) vs. response—Variable slope (four parameters) model with a top value constrained to 100% (GraphPad Prism version 6.00 for Windows, GraphPad Software, La Jolla California USA). […] Curves for compounds that reached a plateau were matched exactly to the measurement points. […] To determine potential of compounds of the invention to affect viability of hematological cancers, cell lines representing various tumor types were selected and tested. Human cell lines tested were: MOLM-13 (acute myeloid leukemia (AML)), MV4-11 (AML), U-2932 (ABC-diffuse large B cell lymphoma), U-937 (histiocytic lymphoma), U-266 (multiple myeloma), RPMI-8226 (multiple myeloma), CMK (megakaryoblastic cell line), SU-DHL-4 (GCB-diffuse large B cell lymphoma), KG1 (AML), Mec-1 (chronic B-cell leukemia), MOLM-16 (AML), Jeko (B-cell lymphoma), WSU-DLCL2 (B-cell lymphoma), JJN3 (plasma cell leukemia), SU-DHL-6 (GCB-diffuse large B cell lymphoma), and Z-138 (mantle cell lymphoma). In addition, two murine cell lines were tested: A20 […].

[3] = test system: KG1; test: MTS cell proliferation assay, KG1; format: cell-based; details: Homo sapiens, KG-1; KG1, 72 hr
Protocol: as §1

[4] = test system: U-266; test: MTS cell proliferation assay, U-266; format: cell-based; details: Homo sapiens; U-266, 72 hr
Protocol: as §1

[5] = test system: hematologic tumor cell lines; test: MTS cell proliferation assay, panel of hematologic cancer cell lines; format: cell-based
Protocol: as §2

[6] = test system: SU-DHL-4; test: MTS cell proliferation assay, SU-DHL-4; format: cell-based; details: Homo sapiens; SU-DHL-4, 72 hr
Protocol: as §1

[7] = test system: Mec-1; test: MTS cell proliferation assay, Mec-1; format: cell-based; details: Homo sapiens, MEC1; Mec-1, 72 hr
Protocol: as §1

[8] = test system: Jeko; test: MTS cell proliferation assay, Jeko; format: cell-based; details: Homo sapiens, 72 hr
Protocol: as §2

[9] = Oral pharmacokinetics in mice; format: in vivo; details: for Tmax / bioavailability: mouse, in vivo, oral; for bioavailability: read-out: oral bioavailability % F
[10] = test system: Molm-13; test: MTS cell proliferation assay, Molm-13; format: cell-based; details: Homo sapiens; Molm-13, 72 hr
Protocol: as §2

[11] = test system: RPMI-8226; test: MTS cell proliferation assay, RPMI-8226; format: cell-based; details: Homo sapiens; RPMI-8226, 72 hr
Protocol: as §2

[12] = test system: U-937; test: MTS cell proliferation assay, U-937; format: cell-based; details: Homo sapiens; U-937, 72 hr
Protocol: as §1

[13] = range against the various cell lines of Table 1, read-out: inhibition of cell proliferation EC50

CNc1n[nH]c2ncc(-c3ccc(CNc4ncc(C#N)nc4C(=O)N[C@@H](C)c4ccc(F)c(F)c4)cc3)cc12 [Compound 2, 6-Cyano-3-[4-(3-methylamino-1H-pyrazolo[3,4-b]pyridin-5-yl)-benzylamino]-pyrazine-2-carboxylic acid [1-(3,4-difluoro-phenyl)-ethyl]-amide]
EC50 [1]: 476 nM
EC50 [2]: 114 nM
EC50 [3]: 195 nM
EC50 [4]: 130 nM
fold more potent than GSK2334470 in viability assays ([5]; 72 hours viability assays): at least 10 fold
number of cell lines with growth inhibition at concentrations less than 500 nM ([5]; out of 16 cell lines): 15
EC50 ([5]; panel of more than 20 cell lines derived from hematologic cancers, read-out: anti-proliferative activity EC50): 3 to 900 nM
EC50 [5, 13]: 3 to 853 nM
EC50 ([5]; range over 16 cell lines, FIG. 3, read-out: potency in the cell proliferation assay (EC50)): < 1000 nM
EC50 [6]: 186 nM
EC50 [7]: 215 nM
EC50 [8]: 279 nM
half-life [9]: long half-life
Tmax [9]: 4 to 8 h
bioavailability [9]: > 40%
EC50 [10]: 3 nM
EC50 [11]: 163 nM
EC50 [12]: 74 nM

C[C@H](NC(=O)c1nc(C#N)cnc1NCc1ccc(-c2cnc3[nH]nc(N)c3n2)cc1)c1ccc(F)c(F)c1 [Compound 1, 3-[4-(3-Amino-1H-pyrazolo[3,4-b]pyrazin-5-yl)-benzylamino]-6-cyano-pyrazine-2-carboxylic acid [1-(3,4-difluoro-phenyl)-ethyl]-amide]
EC50 [1]: 572 nM
EC50 [2]: 156 nM
EC50 [3]: 175 nM
EC50 [4]: 226 nM
EC50 [5, 13]: 3 to 853 nM
EC50 [6]: 313 nM
EC50 [7]: 415 nM
EC50 [8]: 286 nM
half-life [9]: long half-life
Tmax [9]: 4 to 8 h
bioavailability [9]: > 40%
EC50 [10]: 6 nM
EC50 [11]: 174 nM
EC50 [12]: 123 nM
